Values joined by “and” are separate entries in the source; they are usually repeats but may differ in a detail not shown here. Equal values may be shown once. Read-outs that look alike come from different tables or passages of the source.
Test system: PA primary hepatocytes
Assay: HemoShear Technology, PA primary hepatocytes (Examples 10, 11)
Assay type: cell-based, human
Excerpt: For this experiment, we deployed the HemoShear REVEAL-Tx™ technology, which is based on the cone-and-plate configuration or viscometer combined with a porous polycarbonate membrane that mimics a filtering layer of sinusoidal endothelial cells (see: Dash A, Deering TG, Marukian S, et al. Physiological Hemodynamics and Transport Restore Insulin and Glucagon Responses in a Normal Glucose Milieu in Hepatocytes In Vitro. 73rd Scientific Sessions of the American Diabetes Association, 2013 (Chicago), and U.S. Pat. Nos. 7,811,782 and 9,500,642, and 9,617,521, each of which is incorporated by reference herein in its entirety).
Hepatocytes from propionic academia patients are plated in a collagen gel sandwich on one side of the membrane replicating the polarized orientation found in vivo within the hepatic sinusoids. On the other side, medium is continuously perfused and surface shear rates are applied across a range of physiological values derived from sinusoidal flow rates in vivo while also controlling transport in the system with in- and out-flow tubing to each compartment. Effectively, this creates a flow-based culture system where hepatocytes are shielded from direct effects of flow, as they would be in vivo, but perfusion, nutrient gradients, and interstitial fluid movement are maintained.
Biomarker levels are normalized to cell counts and cell volume to account for differences in the number of cells plated for each donor. […] This is most likely due to the presence of ^12C-succinyl-CoA in the sample, which has the same mass. In experiments described below, M-CoA is labeled with ^13C to determine a more accurate percent reduction. Compound 5 reduced the C3 concentration and the C3/C2 ratio with an EC50 similar to that for the reduction in P-CoA (FIGS. 7C, D).

[1] = PA pHeps, HemoShear, average ± SD

CCC(C)(C)C(=O)O [Compound 5, 2,2-dimethybutanoic acid]
EC90 (Homo sapiens, Hepatocyte, HemoShear, PA and MMA pHeps together, read-out: average EC90 value across all biomarkers): 17.1 ± 13.4 µM
EC50 (Homo sapiens, Hepatocyte, PA donor 1, representative data (FIG. 7A), read-out: P-CoA reduction EC50): 1.84 µM
EC50 (Homo sapiens, Hepatocyte, PA donor 1, representative data (FIG. 7E), read-out: MCA reduction EC50): 1.96 µM
EC50 (Homo sapiens, Hepatocyte, PA pHeps, HemoShear, average ± SD, read-out: 2-Methylcitric acid (2MC) EC50): 1.1 ± 0.5 µM
EC90 (Homo sapiens, Hepatocyte, PA pHeps, HemoShear, average ± SD, read-out: 2-Methylcitric acid (2MC) EC90): 7.9 ± 3.6 µM
EC50 (Homo sapiens, Hepatocyte, PA pHeps, HemoShear, average ± SD, read-out: 12C-Acetyl-Camitine (C2) EC50): 4.8 ± 0.2 µM
EC90 (Homo sapiens, Hepatocyte, PA pHeps, HemoShear, average ± SD, read-out: 12C-Acetyl-Camitine (C2) EC90): 20.7 ± 13.1 µM
EC50 (Homo sapiens, Hepatocyte, PA pHeps, HemoShear, average ± SD, read-out: 12C-Propionyl-Carnitine (C3) EC50): 2.6 ± 1.9 µM
EC90 (Homo sapiens, Hepatocyte, PA pHeps, HemoShear, average ± SD, read-out: 12C-Propionyl-Carnitine (C3) EC90): 30.8 ± 26.4 µM
EC50 (Homo sapiens, Hepatocyte, PA pHeps, HemoShear, average ± SD, read-out: 12C-Propionyl-CoA (P-CoA) EC50): 1.9 ± 1 µM
EC90 (Homo sapiens, Hepatocyte, PA pHeps, HemoShear, average ± SD, read-out: 12C-Propionyl-CoA (P-CoA) EC90): 18.4 ± 11.3 µM
EC50 (Homo sapiens, Hepatocyte, PA pHeps, HemoShear, read-out: 12C-Acetyl-CoA EC50): 2.3 ± 1.9 µM
EC90 (Homo sapiens, Hepatocyte, PA pHeps, HemoShear, read-out: 12C-Acetyl-CoA EC90): 14.4 ± 13.6 µM
EC50 (Homo sapiens, Hepatocyte, PA pHeps, HemoShear, read-out: CoASH EC50): 11.6 ± 1.2 µM
EC90 (Homo sapiens, Hepatocyte, PA pHeps, HemoShear, read-out: CoASH EC90): 29.8 ± 24.3 µM
EC50 (Homo sapiens, Hepatocyte, PA pHeps, HemoShear, read-out: Compound 5-CoA (formation) EC50): 3 ± 1.5 µM
EC90 (Homo sapiens, Hepatocyte, PA pHeps, HemoShear, read-out: Compound 5-CoA (formation) EC90): 47.1 ± 39.7 µM
12C-Acetyl-CoA Percent change at 30 μM (PA pHeps, HemoShear): 54 ± 80.6%
CoASH Percent change at 30 μM (PA pHeps, HemoShear): −31.3 ± 24.2%
average reduction in the C3/C2 ratio (PA pHeps, HemoShear, at 30 μM): −2.1±1.2 log 2 fold change
2-Methylcitric acid (2MC) % change at 30 μM [1]: −78.6±12.9%
12C-Acetyl-Camitine (C2) % change at 30 μM [1]: 54 ± 80.6%
12C-Propionyl-Carnitine (C3) % change at 30 μM [1]: −68.9±14.6% and −69.4 ± 16.2%
12C-Propionyl-CoA (P-CoA) % change at 30 μM [1]: −78.8±10.9%
EC90 (PA pHeps, HemoShear, average ± SD, read-out: 12C-Propionyl-Carnitine (C3) EC90): 32.1 ± 29.3 µM
